Key:
[1] = system: E. gergoviae; test: Antimicrobial efficacy (European Pharmacopoeia 2000, Chapter 5.1.3); assay type: cell-based; conditions: for Number of CFUs per ml - Time after Inoculation: E. gergoviae
Method: (§1) The antimicrobial efficacy was tested for three different solutions: […] iii) a carbonate buffer control. The tests were performed according to European Pharmacopoeia 2000, Chapter 5.1.3, pages 259 to 260. Seven 10 ml vials were inoculated, one per test organism. During the tests, the vials were stored at controlled room temperature and protected from light. At different time intervals, samples were withdrawn and after appropriate dilutions the numbers of viable microorganisms (colony forming units per ml, CFU/ml) were determined using standard plate count procedures.

[2] = system: E. coli; test: as above; assay type: cell-based
Method: as §1

[3] = Effect on pH and stability of dilution of aqueous concentrates in 0.9% sodium chloride; assay type: physicochemical; conditions: 400 mg/ml concentrate, 7 ml diluted in 500 ml 0.9% NaCl, room temperature
Method: Three batches of an aqueous concentrate of α-(2,4-disulfophenyl)-N-tert-butylnitrone disodium salt (400 mg/ml) were prepared and adjusted to pH 8.5. One concentrate was unbuffered and the other two concentrates were buffered with respectively 2.6 or 26 mM disodium hydrogen phosphate. In each case a 7 ml portion of the concentrate was transferred into 0.9% sodium chloride solution (500 ml) contained in a PVC bag. The bags were the stored at room temperature, protected from light, for 48 hours. Samples were taken out at 0, 24 and 48 hours and analysed.

[4] = Effect of pH on stability of diluted 4 mg/ml solutions at room temperature; assay type: physicochemical
Source text: The pH dependent degradation of aqueous solutions of α-(2,4-disulfophenyl)-N-tert-butylnitrone disodium salt has been extensively studied. […] Both solutions, which were obtained by appropriate dilution of a corresponding concentrate, were stored at room temperature under conditions that would reasonably simulate a diluted concentrate prepared ready for administration to patients.

[5] = Effect of concentration on stability, phosphate-buffered solutions at +5° C.; assay type: physicochemical; conditions: 50 mM phosphate buffer
Method: In a third study aqueous solutions of α-(2,4-disulfophenyl)-N-tert-butylnitrone disodium salt (concentration either 200 mg/ml or 400 mg/ml) buffered with phosphate buffer (50 mM) were dispensed into 10 ml glass vials and stored at +5° C.

[6] = Stability of buffered and unbuffered solutions and concentrates at room temperature; assay type: physicochemical
Source text: In a further study the stability of both buffered (sodium hydrogen carbonate) and unbuffered aqueous solutions and concentrates of α-(2,4-disulfophenyl)-N-tert-butylnitrone disodium salt stored at room temperature were compared. […] The buffered solutions show no apparent concentration dependent decomposition due to the short storage time and moderate storage temperature.

[7] = 4 mg/ml buffered with phosphate (0.53 mM), 0 days
[8] = 4 mg/ml buffered with phosphate (0.53 mM), 1 day
[9] = 4 mg/ml buffered with phosphate (0.53 mM), 2 days
[10] = 4 mg/ml buffered with phosphate (0.53 mM), 5 days
[11] = 4 mg/ml buffered with phosphate (0.53 mM), 7 days
[12] = 4 mg/ml unbuffered solution, 0 days
[13] = 4 mg/ml unbuffered solution, 1 day
[14] = 4 mg/ml unbuffered solution, 2 days
[15] = 4 mg/ml unbuffered solution, 5 days
[16] = 4 mg/ml unbuffered solution, 7 days
[17] = 7.5 mg/ml buffered (sodium hydrogen carbonate), 0 hours
[18] = 7.5 mg/ml buffered (sodium hydrogen carbonate), 48 hours
[19] = 75 mg/ml buffered (sodium hydrogen carbonate), 0 hours
[20] = 75 mg/ml buffered (sodium hydrogen carbonate), 48 hours
[21] = 150 mg/ml buffered (sodium hydrogen carbonate), 0 hours
[22] = 150 mg/ml buffered (sodium hydrogen carbonate), 48 hours

With `CC(C)(C)[N+]([O-])=Cc1ccc(S(=O)(=O)[O-])cc1S(=O)(=O)[O-].[Na+].[Na+]` [α-(2,4-disulfophenyl)-N-tert-butylnitrone disodium salt] the “Number of CFUs per ml - Time after Inoculation” value (“Number of CFUs per ml - Time” below) ([1]; 10 mg/ml, 6 h) was 2.0 × 10^5 CFUs per ml, the “Number of CFUs per ml - Time” value ([1]; 10 mg/ml, 24 h) was “≦10 CFUs per ml” and the “Number of CFUs per ml - Time” value ([1]; 10 mg/ml, 48 h) was <1 CFUs per ml. For the same compound, the “Number of CFUs per ml - Time” value ([1]; 10 mg/ml, 7 days) was <1 CFUs per ml, the “Number of CFUs per ml - Time” value ([1]; 10 mg/ml, 14 days) was <1 CFUs per ml and the “Number of CFUs per ml - Time” value ([1]; 10 mg/ml, 21 days) was <1 CFUs per ml. For the same compound, the “Number of CFUs per ml - Time” value ([1]; 10 mg/ml, 28 days) was <1 CFUs per ml, the “Number of CFUs per ml - Time” value ([1]; 10 mg/ml, <1 min) was 8.0 × 10^5 CFUs per ml and the “Reduction in colony forming units per ml (CFU/ml)” value ([1]; 400 mg/ml, E. gergovia, within 6 hours) was ≥ 10^3 fold. The “Number of CFUs per ml - Time” value ([1]; 400 mg/ml, 6 h) was 1.3 × 10^2 CFUs per ml, the “Number of CFUs per ml - Time” value ([1]; 400 mg/ml, 24 h) was <1 CFUs per ml and the “Number of CFUs per ml - Time” value ([1]; 400 mg/ml, 48 h) was <1 CFUs per ml. The “Number of CFUs per ml - Time” value ([1]; 400 mg/ml, 7 days) was <1 CFUs per ml, the “Number of CFUs per ml - Time” value ([1]; 400 mg/ml, 14 days) was <1 CFUs per ml and the “Number of CFUs per ml - Time” value ([1]; 400 mg/ml, 21 days) was <1 CFUs per ml. The “Number of CFUs per ml - Time” value ([1]; 400 mg/ml, 28 days) was <1 CFUs per ml, the “Number of CFUs per ml - Time” value ([1]; 400 mg/ml, <1 min) was 5.2 × 10^5 CFUs per ml and the “Number of CFUs per ml - Time” value ([2]; 10 mg/ml, 6 h) was 9.0 × 10^5 CFUs per ml. The “Number of CFUs per ml - Time” value ([2]; 10 mg/ml, 24 h) was 5.0 × 10^4 CFUs per ml, the “Number of CFUs per ml - Time” value ([2]; 10 mg/ml, 48 h) was “≦10 CFUs per ml” and the “Number of CFUs per ml - Time” value ([2]; 10 mg/ml, 7 days) was <1 CFUs per ml. The “Number of CFUs per ml - Time” value ([2]; 10 mg/ml, 14 days) was <1 CFUs per ml, the “Number of CFUs per ml - Time” value ([2]; 10 mg/ml, 21 days) was <1 CFUs per ml and the “Number of CFUs per ml - Time” value ([2]; 10 mg/ml, 28 days) was <1 CFUs per ml. The “Number of CFUs per ml - Time” value ([2]; 10 mg/ml, <1 min) was 1.5 × 10^6 CFUs per ml, the “Number of CFUs per ml - Time” value ([2]; 400 mg/ml, 6 h) was 4.1 × 10^4 CFUs per ml and the “Number of CFUs per ml - Time” value ([2]; 400 mg/ml, 24 h) was <1 CFUs per ml. The “Number of CFUs per ml - Time” value ([2]; 400 mg/ml, 48 h) was <1 CFUs per ml, the “Number of CFUs per ml - Time” value ([2]; 400 mg/ml, 7 days) was <1 CFUs per ml and the “Number of CFUs per ml - Time” value ([2]; 400 mg/ml, 14 days) was <1 CFUs per ml. The “Number of CFUs per ml - Time” value ([2]; 400 mg/ml, 21 days) was <1 CFUs per ml, the “Number of CFUs per ml - Time” value ([2]; 400 mg/ml, 28 days) was <1 CFUs per ml and the “Number of CFUs per ml - Time” value ([2]; 400 mg/ml, <1 min) was 3.8 × 10^5 CFUs per ml. The “Amount of Aldehyde (II)” value ([3]; 2.6 mM phosphate, 0 hours) was 0.30 Area %, the pH ([3]; 2.6 mM phosphate, 0 hours) was 6.50 and the “Amount of Aldehyde (II)” value ([3]; 2.6 mM phosphate, 24 hours) was 0.44 Area %. The pH ([3]; 2.6 mM phosphate, 24 hours) was 6.69, the “Amount of Aldehyde (II)” value ([3]; 2.6 mM phosphate, 48 hours) was 0.57 Area % and the pH ([3]; 2.6 mM phosphate, 48 hours) was 6.67. The “Amount of Aldehyde (II)” value ([3]; 26 mM phosphate, 0 hours) was 0.17 Area %, the pH ([3]; 26 mM phosphate, 0 hours) was 7.43 and the “Amount of Aldehyde (II)” value ([3]; 26 mM phosphate, 24 hours) was 0.20 Area %. The pH ([3]; 26 mM phosphate, 24 hours) was 7.39, the “Amount of Aldehyde (II)” value ([3]; 26 mM phosphate, 48 hours) was 0.25 Area % and the pH ([3]; 26 mM phosphate, 48 hours) was 7.38. The “Amount of Aldehyde (II)” value ([3]; no buffer, 0 hours) was 0.25 Area %, the pH ([3]; no buffer, 0 hours) was 6.01 and the “Amount of Aldehyde (II)” value ([3]; no buffer, 24 hours) was 0.68 Area %. For the same compound, the pH ([3]; no buffer, 24 hours) was 6.32, the “Amount of Aldehyde (II)” value ([3]; no buffer, 48 hours) was 0.89 Area % and the pH ([3]; no buffer, 48 hours) was 6.48. For the same compound, the “Amount of Aldehyde (II)” value [4, 7] was 0.8 Area %, the pH [4, 7] was 8.0 and the “Amount of Aldehyde (II)” value [4, 8] was 0.9 Area %. For the same compound, the pH [4, 8] was 7.9, the “Amount of Aldehyde (II)” value [4, 9] was 0.9 Area % and the pH [4, 9] was 7.7. The “Amount of Aldehyde (II)” value [4, 10] was 1.0 Area %, the pH [4, 10] was 7.5 and the “Amount of Aldehyde (II)” value [4, 11] was 1.1 Area %. For the same compound, the pH [4, 11] was 7.5, the “Amount of Aldehyde (II)” value [4, 12] was 0.9 Area % and the pH [4, 12] was 6.8. For the same compound, the “Amount of Aldehyde (II)” value [4, 13] was 1.1 Area %, the pH [4, 13] was 6.8 and the “Amount of Aldehyde (II)” value [4, 14] was 1.2 Area %. For the same compound, the pH [4, 14] was 6.8, the “Amount of Aldehyde (II)” value [4, 15] was 1.6 Area % and the pH [4, 15] was 6.8. The “Amount of Aldehyde (II)” value [4, 16] was 2.0 Area %, the pH [4, 16] was 6.7 and the “Amount of Aldehyde (II)” value ([5]; 200 mg/ml, 0 months) was 0.1 Area %. The pH ([5]; 200 mg/ml, 0 months) was 8.0, the “Amount of Aldehyde (II)” value ([5]; 200 mg/ml, 6 months) was 0.4 Area % and the pH ([5]; 200 mg/ml, 6 months) was 7.9. For the same compound, the “Amount of Aldehyde (II)” value ([5]; 200 mg/ml, 12 months) was 0.6 Area %, the pH ([5]; 200 mg/ml, 12 months) was 7.9 and the “Amount of Aldehyde (II)” value ([5]; 200 mg/ml, 18 months) was 0.7 Area %. For the same compound, the pH ([5]; 200 mg/ml, 18 months) was 8.0, the “Amount of Aldehyde (II)” value ([5]; 400 mg/ml, 0 months) was 0.1 Area % and the pH ([5]; 400 mg/ml, 0 months) was 8.0. For the same compound, the “Amount of Aldehyde (II)” value ([5]; 400 mg/ml, 6 months) was 0.3 Area %, the pH ([5]; 400 mg/ml, 6 months) was 7.8 and the “Amount of Aldehyde (II)” value ([5]; 400 mg/ml, 12 months) was 0.4 Area %. The pH ([5]; 400 mg/ml, 12 months) was 7.8, the “Amount of Aldehyde (II)” value ([5]; 400 mg/ml, 18 months) was 0.4 Area % and the pH ([5]; 400 mg/ml, 18 months) was 7.9. The “Amount of Aldehyde (II)” value [6, 17] was 0.6 Area %, the pH [6, 17] was 8.1 and the “Amount of Aldehyde (II)” value [6, 18] was 0.7 Area %. For the same compound, the pH [6, 18] was 8.7, the “Amount of Aldehyde (II)” value ([6]; 7.5 mg/ml unbuffered, 0 hours) was 1.0 Area % and the pH ([6]; 7.5 mg/ml unbuffered, 0 hours) was 5.8. For the same compound, the “Amount of Aldehyde (II)” value ([6]; 7.5 mg/ml unbuffered, 48 hours) was 2.4 Area %, the pH ([6]; 7.5 mg/ml unbuffered, 48 hours) was 6.3 and the “Amount of Aldehyde (II)” value [6, 19] was 0.6 Area %. The pH [6, 19] was 8.0, the “Amount of Aldehyde (II)” value [6, 20] was 0.7 Area % and the pH [6, 20] was 8.1. The “Amount of Aldehyde (II)” value ([6]; 75 mg/ml unbuffered, 0 hours) was 1.1 Area %, the pH ([6]; 75 mg/ml unbuffered, 0 hours) was 6.1 and the “Amount of Aldehyde (II)” value ([6]; 75 mg/ml unbuffered, 48 hours) was 1.9 Area %. For the same compound, the pH ([6]; 75 mg/ml unbuffered, 48 hours) was 6.7, the “Amount of Aldehyde (II)” value [6, 21] was 0.6 Area % and the pH [6, 21] was 7.9. The “Amount of Aldehyde (II)” value [6, 22] was 0.7 Area %, the pH [6, 22] was 7.8 and the “Amount of Aldehyde (II)” value ([6]; 150 mg/ml unbuffered, 0 hours) was 1.0 Area %. The pH ([6]; 150 mg/ml unbuffered, 0 hours) was 6.1, the “Amount of Aldehyde (II)” value ([6]; 150 mg/ml unbuffered, 48 hours) was 1.7 Area % and the pH ([6]; 150 mg/ml unbuffered, 48 hours) was 6.7.

From patent US20030181527A1, “Novel formulations of alpha-2,4-disulfophenyl-n-tert-butylnitrone” (priority 2000, published 2003)
